Reference: the SangsterLogP compilation

details: not given

Row | SMILES | logP
1 | CNC(=O)CSP(=O)(OC)OC | -0.75
2 | O=C(NC(=O)c1c(F)cccc1F)Nc1cc(Cl)c(OC(F)(F)C(F)C(F)(F)F)cc1Cl (configuration not stated) | 5.12
3 | [O-][n+]1nc(-n2ccnc2)nc2ccc(Cl)cc21 | 2.04
4 | CCCCCC(C)OC(=O)COc1ccc(Cl)c2cccnc12 (configuration not stated) | 5.03
5 | CCOC(=O)Cn1c(=O)sc2cccc(Cl)c21 | 2.5
6 | CC(C)(C)C(O)/C(=C\c1ccc(Cl)cc1)n1cncn1 (configuration not stated) | 3.67
7 | COCC(=O)N(c1c(C)cccc1C)N1CCOC1=O | 0.73
8 | O=C(Nc1ccccc1)Nc1ccnc(Cl)c1 | 3.2
9 | CCN(Cc1c(F)cccc1Cl)c1c([N+](=O)[O-])cc(C(F)(F)F)cc1[N+](=O)[O-] | 5.45
10 | CC1(C)[C@H](C(=O)O[C@H](C#N)c2cccc(Oc3ccccc3)c2)[C@@H]1/C=C\C(=O)OC(C(F)(F)F)C(F)(F)F | 5.26
11 | CCS(=O)(=O)Oc1ccc2c(c1)C(C)(C)CO2 | 2.41
12 | CCCN(CCC)c1c([N+](=O)[O-])cc(C(F)(F)F)c(N)c1[N+](=O)[O-] | 4.1
13 | CCCCCCCCn1sccc1=O | 2.45
14 | COC(=O)c1c(C(F)F)nc(C(F)(F)F)c(C2=NCCS2)c1CC(C)C | 3.89
15 | C#CCOC(=O)[C@@H](C)Oc1ccc(Oc2ncc(Cl)cc2F)cc1 | 3.9
16 | C#CCC1=C(C)C(OC(=O)C2C(C=C(C)C)C2(C)C)CC1=O (configuration not stated) | 4.49
17 | CC1(C)OC(c2ccco2)CN1C(=O)C(Cl)Cl (configuration not stated) | 2.12
18 | CCCN(CCC)C(=O)SCc1ccccc1 | 4.65
19 | CCOP(=S)(OCC)OC(Cl)C(Cl)(Cl)Cl (configuration not stated) | 4.59
20 | C/C(=N\C#N)N(C)Cc1ccc(Cl)nc1 | 0.8
21 | CC1=C(C)S(=O)(=O)CCS1(=O)=O | -0.17
22 | COc1ccsc1CN(C(=O)CCl)c1c(C)cccc1C | 3.53
23 | CC(Oc1ccc(Oc2cnc3cc(Cl)ccc3n2)cc1)C(=O)OCC1CCCO1 (configuration not stated) | 4.32
24 | Clc1ccc(C2(Cn3cncn3)CC(Br)CO2)c(Cl)c1 (configuration not stated) | 3.24
25 | Cc1ccc2nc3sc(=O)sc3nc2c1 | 3.78
26 | FC(F)C(F)(F)OCC(Cn1cncn1)c1ccc(Cl)cc1Cl (configuration not stated) | 3.53

same assay, conditions: pH 2.0

Row | logD | SMILES
27 | 1.63 | COc1cc(OC)nc(NC(=O)NS(=O)(=O)N(C)S(C)(=O)=O)n1

same assay, conditions: pH 5.0

Row | SMILES | logD
28 | Cc1cc(C2CC2)nc(Nc2ccccc2)n1 | 3.9
29 | CCS(=O)(=O)c1cccnc1S(=O)(=O)NC(=O)Nc1nc(OC)cc(OC)n1 | 0.29

same assay, conditions: pH 5.6

Row | SMILES | logD
30 | O=c1c2cc(F)ccc2nc(-n2cncn2)n1-c1ccc(Cl)cc1Cl | 3.24

same assay, conditions: pH 6.1

Row | SMILES | logD
31 | Cc1cc(C)nc(Nc2ccccc2)n1 | 2.84

same assay, conditions: pH 6.5

Row | SMILES | logD
32 | CNC(=O)ON=C(C)C(C)S(C)(=O)=O (configuration not stated) | 1.11
33 | COc1ccc(C(O)(c2cncnc2)C2CC2)cc1 (configuration not stated) | 1.91

same assay, conditions: pH 7.0

Row | SMILES | logD
34 | CC(C)C(O)(c1ccc(OC(F)(F)F)cc1)c1cncnc1 (configuration not stated) | 3.34
35 | CN1CSC(=S)N(C)C1 | 1.4
36 | CC(C1CC1)C(O)(Cn1cncn1)c1ccc(Cl)cc1 (configuration not stated) | 2.91
37 | CCOC(=O)CCN(SN(C)C(=O)Oc1cccc2c1OC(C)(C)C2)C(C)C | 4.3
38 | COc1cc(OC)n2nc(S(=O)(=O)Nc3c(Cl)ccc(C)c3Cl)nc2n1 | 2.46
39 | CCOC(=O)CSc1nc(C(C)(C)C)nn1C(=O)N(C)C | 2.69

same assay, conditions: pH 7.3

Row | SMILES | logD
40 | O=C(Nc1ccccc1)Nc1cnns1 | 1.77

details: not given; remark: another data set of the same source

Row | SMILES | logP
41 | CCOC1Oc2ccc(OS(C)(=O)=O)cc2C1(C)C (configuration not stated) | 2.7
42 | CCOC(=O)C1(C)OC(=O)N(c2cc(Cl)cc(Cl)c2)C1=O (configuration not stated) | 3.3
43 | CC(C)c1cc(Oc2ccccc2)cc(C(C)C)c1NC(=S)NC(C)(C)C | 5.76
44 | O=C(Nc1ccc(Cl)cc1C(O)c1ccccc1)c1ccncc1 (configuration not stated) | 3.13
45 | O=S(=O)(c1ccc(Cl)cc1)c1cc(Cl)c(Cl)cc1Cl | 4.61
46 | COC(=O)C(C)N(C(=O)c1ccco1)c1c(C)cccc1C (racemic) | 2.7
47 | CCOCN(C(=O)CCl)c1c(C)cccc1CC | 3.03
48 | CNC(=O)ON=C(C)C(C)SC (configuration not stated) | 1.11
49 | OC1(c2ccc(Cl)cc2)CCCCCC1n1cncn1 (configuration not stated) | 3.02
50 | O=[N+]([O-])c1ccc(NS(=O)(=O)c2ccc(Cl)c(C(F)(F)F)c2)c(Cl)c1 | 2.4
51 | CC(C)N(Cc1ccccc1)C(=O)C(C)(C)C | 3
52 | C[C@@H](Oc1ccc(Oc2ccc(C#N)cc2F)cc1)C(=O)O | 3.31
53 | Clc1ccccc1-c1nnc(-c2ccccc2Cl)nn1 | 3.1
54 | O=C1c2ccccc2C(=O)N1SC(Cl)(Cl)Cl | 3.11
55 | CCN(CC)C(=O)SCc1ccccc1Cl | 3.43
56 | CC(Oc1ccc(Oc2ncc(Cl)cc2Cl)cc1)C(=O)N1CCCO1 (configuration not stated) | 3.36
57 | CON(C)C(=O)Nc1ccc(Br)cc1 | 2.41
58 | NC(=O)c1nc(-c2ccccc2)n(-c2ccc(Cl)c(COCC(F)(F)C(F)(F)F)c2)n1 | 3.27
59 | CC(C)OC(=O)C(O)(c1ccc(Br)cc1)c1ccc(Br)cc1 | 5.4
60 | CCOP(=O)(SC(C)CC)SC(C)CC (configuration not stated) | 3.9
61 | O=C(NC(=O)c1ccccc1Cl)Nc1ccc(OC(F)(F)F)cc1 | 4.91

Row | SMILES | logP
62 | CCCCC(CC)N1C(=O)C2C3C=CC(C3)C2C1=O (configuration not stated) | 3.8
63 | O=C1C(Cl)=C(Cl)C(=O)N1c1ccc(F)cc1 | 2.3
64 | CC1(C)C(C=C(Cl)Cl)C1C(=O)OC(C#N)c1ccc(F)c(Oc2ccccc2)c1 (configuration not stated) | 5.93
65 | CCCSP(=O)(OCC)Oc1ccc(Br)cc1Cl (configuration not stated) | 4.44
66 | CN(C)C(=O)Nc1ccc(-n2nc(C(C)(C)C)oc2=O)c(Cl)c1 | 2.51
67 | CC1(C)CCC(Cc2ccc(Cl)cc2)C1(O)Cn1cncn1 (configuration not stated) | 3.93
68 | CCCOC(=O)c1ccc(C(=O)OCCC)nc1 | 3.57
69 | CCOc1ccc(C2(C(=O)OC(C#N)c3cccc(Oc4ccccc4)c3)CC2(Cl)Cl)cc1 (configuration not stated) | 4.19
70 | COC(C)(C)CCCC(C)C/C=C/C(C)=C/C(=O)OC(C)C (configuration not stated) | 5.21
71 | CCSC(C)CC1CC(=O)C(/C(CC)=N/OC/C=C/Cl)=C(O)C1 (configuration not stated) | 4.19
72 | CCSCCSP(=O)(OC)OC | 1.32
73 | CC1COc2ccccc2N1C(=O)C(Cl)Cl (configuration not stated) | 2.7
74 | CC1(C)CON(Cc2ccccc2Cl)C1=O | 2.5
75 | C=CCCCOC(=O)C(CC)N(Cc1ccco1)C(=O)n1ccnc1 (configuration not stated) | 3
76 | Nc1cnn(-c2ccccc2)c(=O)c1Cl | 1.19
77 | CCNP(=S)(OC)O/C(C)=C/C(=O)OC(C)C (configuration not stated) | 3.82
78 | CCN(CC)C(=O)C(C)Oc1cccc2ccccc12 (configuration not stated) | 3.3
79 | COc1ccc(/C(=C\C(=O)N2CCOCC2)c2ccc(Cl)cc2)cc1OC | 2.73
80 | CCC(=O)Nc1ccc(Cl)c(Cl)c1 | 3.3
81 | CCOC(=O)C(Cl)Cc1cc(-n2nc(C)n(C(F)F)c2=O)c(F)cc1Cl (configuration not stated) | 3.36
82 | COP(=S)(OC)Oc1ccc(Sc2ccc(OP(=S)(OC)OC)cc2)cc1 | 4.91

Row | SMILES | logP
83 | CC(C)NC(=O)N1CC(=O)N(c2cc(Cl)cc(Cl)c2)C1=O | 3
84 | CCSCc1ccccc1OC(=O)NC | 2.04
85 | Cl/C=C\CCl | 2.06
86 | CCCCOC(=O)[C@@H](C)Oc1ccc(Oc2ccc(C(F)(F)F)cn2)cc1 | 4.5
87 | COP(=S)(OC)Oc1ccc(C#N)cc1 | 2.65
88 | C#CCOS(=O)OC1CCCCC1Oc1ccc(C(C)(C)C)cc1 (configuration not stated) | 3.73
89 | C/C=C\COCN(C(=O)CCl)c1c(CC)cccc1CC | 3.51
90 | C=CCN(CC=C)C(=O)C(Cl)Cl | 1.84
91 | O=C1C2CC=CCC2C(=O)N1SC(Cl)(Cl)Cl (configuration not stated) | 2.78
92 | CCCCOC(=O)N(C)SN(C)C(=O)Oc1cccc2c1OC(C)(C)C2 | 4.6
93 | COP(=O)(OC)OC1=C(Cl)C2C=CCC12 (configuration not stated) | 2.32
94 | CCOc1nc(C(Cl)(Cl)Cl)ns1 | 3.37
95 | C/C=C/C(=O)Oc1c(C(C)CCCCCC)cc([N+](=O)[O-])cc1[N+](=O)[O-] (configuration not stated) | 4.54
96 | COCCN(C(=O)CCl)c1c(C)cccc1C | 2.2
97 | CC(C)N1C(=O)N(c2ccccc2)CS/C1=N\C(C)(C)C | 4.3
98 | O=c1oc2ccccc2c(O)c1C1CC(c2ccc(OCc3ccc(C(F)(F)F)cc3)cc2)Cc2ccccc21 (configuration not stated) | 4.7
99 | CC(C)OC(=O)C(C(=O)OC(C)C)=C1SCCS1 | 3.3
100 | CCOP(=S)(OCC)Oc1ccc(=O)n(-c2ccccc2)n1 | 3.2
101 | CCOCCOC(=O)C(C)Oc1ccc(Oc2ncc(C(F)(F)F)cc2Cl)cc1 (configuration not stated) | 4.33
102 | CCCCC(CC)CN1C(=O)C2C3C=CC(C3)C2C1=O (configuration not stated) | 3.7
103 | CCOP(=S)(OCC)Oc1nc(Cl)n(C(C)C)n1 | 2.99

Row | SMILES | logP
104 | CCC1OCC(COc2ccc(Oc3ccccc3)cc2)O1 (configuration not stated) | 4.3
105 | CCOC(=O)[C@@H](C)Oc1ccc(Oc2nc3ccc(Cl)cc3o2)cc1 | 4.58
106 | CC(C)=CC1C(C(=O)OCc2coc(Cc3ccccc3)c2)C1(C)C (configuration not stated) | 5.4
107 | C=CCNC(=O)CN(CC=C)C(=O)C(Cl)Cl | 1
108 | COCC(C)N(C(=O)CCl)c1c(C)csc1C (configuration not stated) | 2.15
109 | CC(C)C1CCC(Cc2ccc(Cl)cc2)C1(O)Cn1cncn1 (configuration not stated) | 4.21
110 | CC1(C)[C@H](C(=O)O[C@H](C#N)c2cccc(Oc3ccccc3)c2)[C@@H]1C(Br)C(Br)(Br)Br (some centres not stated) | 5
111 | CC1=NNC(=O)N(/N=C/c2cccnc2)C1 | -0.18
112 | CN(C)C(=O)Nc1ccc(Cl)c(Cl)c1 | 2.85
113 | CC(C)=CC1C(C(=O)OCN2C(=O)C3=C(CCCC3)C2=O)C1(C)C (configuration not stated) | 4.49
114 | O=CNC(N1CCN(C(NC=O)C(Cl)(Cl)Cl)CC1)C(Cl)(Cl)Cl (configuration not stated) | 2.2
115 | CC1(C)CC/C(=C\c2ccc(Cl)cc2)C1(O)Cn1cncn1 (configuration not stated) | 3.29
116 | CCNc1nc(Cl)nc(NCC)n1 | 2.1
117 | COC(=O)c1c(Cl)c(Cl)c(C(=O)OC)c(Cl)c1Cl | 4.28
118 | CN(C)C(=O)Nc1cc(C(C)(C)C)on1 | 1.98
119 | CCOC(=O)c1cn2nc(OP(=S)(OCC)OCC)cc2nc1C | 3.8
120 | CCCCCOC(=O)COc1cc(N2C(=O)C3=C(CCCC3)C2=O)c(F)cc1Cl | 4.99
121 | Cc1cnc(C2=NC(C)(C(C)C)C(=O)N2)c(C(=O)O)c1 (configuration not stated) | 0.39
122 | CCSCCSP(=S)(OC)OC | 3.46
